Source: patent US6800658B2, “Substituted diphenyl indanone, indane and indole compounds and analogues thereof useful for the treatment of prevention of diseases characterized by abnormal cell proliferation” (Children's Medical Center Corporation, priority 1997, dated 2004)
One block for each compound: values may come before it.

Key:
[1] = test system: NIH 3T3 mouse fibroblast cells; experiment: Mitogenic Assay (mitogen-induced cell proliferation); details: for IC50: NIH3T3, read-out: Mitogenic Assay IC50; for inhibition at 10 µM: NIH3T3, read-out: Mitogenic Assay Inhibition
[2] = molecular target: Gardos channel of erythrocytes (Homo sapiens, UniProt O15554); experiment: Gardos Channel Assay; details: for inhibition at 10 µM: read-out: Gardos Channel Assay Inhibition
Gardos channel of erythrocytes, sequence (O15554 whole entry): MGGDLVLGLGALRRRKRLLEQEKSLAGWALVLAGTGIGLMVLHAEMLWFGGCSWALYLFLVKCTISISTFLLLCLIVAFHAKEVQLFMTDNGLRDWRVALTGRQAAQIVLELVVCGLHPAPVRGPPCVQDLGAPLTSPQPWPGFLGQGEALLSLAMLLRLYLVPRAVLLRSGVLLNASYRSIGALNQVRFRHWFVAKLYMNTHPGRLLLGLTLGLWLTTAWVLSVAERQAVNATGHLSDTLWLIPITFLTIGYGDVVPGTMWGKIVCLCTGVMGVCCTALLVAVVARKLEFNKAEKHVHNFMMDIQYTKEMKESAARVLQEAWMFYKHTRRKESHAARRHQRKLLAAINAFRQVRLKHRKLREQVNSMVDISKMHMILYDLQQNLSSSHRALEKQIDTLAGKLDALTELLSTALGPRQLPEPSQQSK

HeLa = experiment: SRB antiproliferative assay, HeLa; assay type: cell-based; details: Homo sapiens, 120 h, Cervical, 5% FCS, 5 Day Incubation
Excerpt: (§1) The cells were passaged using Trypsin (Gibco).

CaSki = experiment: SRB antiproliferative assay, CaSki; assay type: cell-based; details: Homo sapiens, Ca-Ski, 120 h; Cervical; 5% FCS, 5 Day Incubation
Excerpt: as §1

MCF7 = experiment: SRB antiproliferative assay, MCF7; details: Homo sapiens, MCF7, 120 h, read-out: SRB IC50 MCF7
MDA-MB-231 = experiment: SRB antiproliferative assay, MDA-MB-231; assay type: cell-based; details: Homo sapiens, 120 h; Breast; 5% FCS, 5 Day Incubation; read-out: SRB IC50 MDA-MB-23
Excerpt: as §1

3T3 = experiment: SRB assay, normal 3T3 cells; assay type: cell-based; details: NIH3T3, 120 h; Normal mouse; 5% FCS, 5 Day Incubation
Excerpt: as §1

SK-OV-3 = experiment: SRB antiproliferative assay, SK-OV-3; assay type: cell-based; details: Homo sapiens, SK-OV-3, 120 h; Ovary; 5% FCS, 5 Day Incubation
Excerpt: as §1

HUVEC = experiment: SRB assay, normal HUVEC cells; assay type: cell-based; details: 120 h, Normal human, 5% FCS, 5 Day Incubation
Excerpt: as §1

HTB174 = experiment: SRB antiproliferative assay, HTB174; assay type: cell-based; details: 120 h; Lung; 5% FCS, 5 Day Incubation
Excerpt: as §1

HEPG2 = experiment: SRB antiproliferative assay, HEPG2; assay type: cell-based; details: Homo sapiens, HepG2, 120 h; Hepatocel; 5% FCS, 5 Day Incubation
Excerpt: as §1

HCT-15 = experiment: SRB antiproliferative assay, HCT-15; assay type: cell-based; details: Homo sapiens, HCT-15, 120 h; Colon; 5% FCS, 5 Day Incubation
Excerpt: as §1

A549 = experiment: SRB antiproliferative assay, A549; details: Homo sapiens, A549, 120 h, read-out: SRB IC50 A549
L929 = experiment: SRB assay, normal L929 cells; assay type: cell-based; details: L929, 120 h; Normal mouse; 5% FCS, 5 Day Incubation
Excerpt: as §1

HT29 = experiment: SRB antiproliferative assay, HT29; details: Homo sapiens, HT-29, 120 h, read-out: SRB IC50 HT29
GM = experiment: SRB assay, normal GM cells; assay type: cell-based; details: 120 h; Normal human; 5% FCS, 5 Day Incubation
Excerpt: as §1

ACHN = experiment: SRB antiproliferative assay, ACHN; assay type: cell-based; details: Homo sapiens, 120 h, Renal, 5% FCS, 5 Day Incubation
Excerpt: as §1

SK-MEL-28 = experiment: SRB antiproliferative assay, SK-MEL-28; assay type: cell-based; details: Homo sapiens, SK-MEL-28, 120 h; Melanoma; 5% FCS, 5 Day Incubation
Excerpt: as §1

MMRU cells = experiment: SRB antiproliferative assay, MMRU; details: Homo sapiens, 120 h, read-out: SRB IC50 MMRU
DU-145 = experiment: SRB antiproliferative assay, DU-145; assay type: cell-based; details: Homo sapiens, DU-145, 120 h; Prostate; 5% FCS, 5 Day Incubation
Excerpt: as §1

[3] = test system: MM-RU human melanoma cells; details: SCID mice inoculated with MM-RU human melanoma cells, daily administration; cited from earlier work
[4] = test system: patients with sickle cell disease; details: oral therapy; cited from earlier work
SAD mouse red cells = details: oral administration; cited from earlier work

Compound: COC(=O)C1C(=O)c2ccccc2C1(c1ccccc1)c1ccccc1 (stereo not drawn) [Compound 15, 3,3-Diphenylindanone-2-methyl acetate]
IC50 [1]: 7.5 µM
inhibition at 10 µM [1]: 80%
IC50 [2]: 2.9 µM
inhibition at 10 µM [2]: 54.8%
melting point: 140 to 142 °C

Compound: C=CCOC1=C(CC=C)C(c2ccccc2)(c2ccccc2)c2ccccc21 [Compound 6]
IC50 [1]: 3.4 µM
inhibition at 10 µM [1]: 90%
inhibition at 10 µM [2]: 35%

Compound: N#CC1OC12CC(c1ccccc1)(c1ccccc1)c1ccccc12 (stereo not drawn) [Compound 5, spiro[3,3-diphenyl-2,3-dihydro(1H)indene-1,3′-2′-cyanooxirane]]
inhibition at 10 µM [1]: 29%
inhibition at 10 µM [2]: 67.3%

Compound: Clc1ccccc1C(c1ccccc1)(c1ccccc1)n1ccnc1 [Clotrimazole]
number of lung metastases observed [3]: significant reduction
Gardos channel [4]: induces inhibition
erythrocyte dehydration [4]: reduces
cell density (SAD mouse red cells): decreased
mean cell hemoglobin concentration (MCHC) (SAD mouse red cells): decreased
red cell Gardos channel (SAD mouse red cells): inhibition
red cell K+ content (SAD mouse red cells): increased

Second part, led by results:

inhibition at 10 µM [2]: 0%
melting point: 50 to 52 °C
Compound: COC(=O)c1ccc(COC2CC(c3ccccc3)(c3ccccc3)c3ccccc32)cc1 (stereo not drawn) [Compound 17, 3,3-Diphenyl-1-indanyl α-(4-methyltoluate) ether]
inhibition at 10 µM [1]: 76%

IC50 (HeLa): 5.1 µM
IC50 (MCF7): 4.4 µM
IC50 (MDA-MB-231): > 10 µM
IC50 (SK-OV-3): > 10 µM
inhibition at 10 µM [2]: 50%
melting point: 85 °C
IC50 (HEPG2): 5.8 µM
IC50 (HCT-15): 6.6 µM
IC50 (A549): 8.8 µM
IC50 (HT29): 6.8 µM
IC50 (ACHN): > 10 µM
IC50 (SK-MEL-28): 5.5 µM
IC50 (DU-145): > 10 µM
Compound: O/N=C1\CC(c2ccc(Cl)cc2)(c2ccc(Cl)cc2)c2ccc(Cl)cc21 [Compound 11]
IC50 (CaSki): 7 µM
IC50 [1]: 3.4 µM
inhibition at 10 µM [1]: 99%
IC50 (3T3): > 10 µM
IC50 (HUVEC): 6.4 µM
IC50 (HTB174): 5.9 µM
IC50 (L929): 8.6 µM
IC50 (GM): > 10 µM
IC50 (MMRU cells): 6.2 µM

inhibition at 10 µM [2]: 0%
melting point: 27 to 29 °C
Compound: Clc1ccccc1COC1CC(c2ccccc2)(c2ccccc2)c2ccccc21 (stereo not drawn) [Compound 18, 3,3-Diphenyl-1-indanyl α-(2-chlorotoluyl) ether]
inhibition at 10 µM [1]: 73%

inhibition at 10 µM [2]: 0%
melting point: 124 to 126 °C
Compound: OC1=C(CCC2OCCO2)C(c2ccccc2)(c2ccccc2)c2ccccc21 [Compound 20, 2-(Ethyl-2′-(1,3-dioxolane))-1-hydroxy-3,3-diphenylindene]
inhibition at 10 µM [1]: 81%
